# Laboratory results from patent US8367317B2, “Variants of hepatitis B virus with resistance to anti-viral nucleoside agents and applications thereof” (Melbourne Health; St. Vincent's Hospital Melbourne; Austin …, priority 2005, dated 2013).
# Counter-ions that a name gives are not always drawn.
# Assays:
# [1] = system: WT HBV (genotype D isolate, precore G1896A background); test: Antiviral testing in HepG2 cells transduced with recombinant HBV/baculovirus, wild type; format: cell-based, hepatitis B virus; conditions: none (WT) polymerase; area under dose-response curve; values set to 1.0 (relative to WT)
# Description: (§1) The sensitivity/resistance profile of HBV mutants to adefovir, tenofovir and other antiviral agents was examined in vitro using recombinant HBV/baculovirus. The procedure for analysing the resistance profile is outlined in the following Examples 7-14.
# (§2) Sf21 insect cells were maintained in supplemented Grace's insect medium further supplemented with 10% v/v heat-inactivated fetal bovine serum (Gibco BRL, Gaithersburg, Md.) in humidified incubator at 28 C with CO2. HepG2 cells were maintained in minimal essential medium supplemented with 10% v/v heat-inactivated fetal bovine serum (MEM-FBS). HepG2 cells were grown in humidified 37° C. incubators at 5% v/v CO2.
# (§3) The recombinant HBV/baculovirus system used for antiviral testing has been previously described (Delaney et al., Antimicrob Agents Chernother 45(6): 1705-[…], 2001). In brief, the recombinant transfer vector was created by excising a fragment containing the 1.3× HBV genome construct and cloning it into the multiple cloning region of a baculovirus vector pBlueBac4.5 (Invitrogen, Carlsbad, Calif.). Point mutations were created by site directed mutagenesis using the commercial kits according to the manufacturers specifications (QuikChange, Stratagene). The nucleotide sequence of the plasmid and the point mutations generated by site directed mutagenesis were confirmed by sequencing using the ABI Prism Big Dye Terminator Cycle Sequencing Ready Reaction Kit according to the manufacturer's specifications (Perkin Elmer, Cetus Norwalk, Conn.). The panel of HBV mutants was generated from a wild type (WT) genotype D HBV isolate by site-directed mutagenesis. Mutants encoded either WT HBV polymerase or polymerase with the amino acid substitutions listed in Table 8 in an HBeAg negative (precore [PC] G1896A mutant) background. Other HBV mutants can be made and tested for antiviral sensitivity in a similar manner.
# (§4) Purified recombinant transfer vector and linear AcMNPV baculovirus DNA were co-transfected into Sf21 cells using the BacNBlue transfection kit from Invitrogen (Carlsbad, Calif.); recombinant viruses were isolated by plaque assay according to the manufacturer's instructions. A series of recombinant viruses were amplified from isolated plaques by infecting 100-mm dishes of Sf21 cells. Viral DNA was extracted from amplified viruses using standard procedures. Purified viral DNA was digested with restriction enzymes and then fractionated by electrophoresis in a 1% […] agarose gel. Southern blotting was performed to determine which virus isolates contained the intact 1.3 HBV construct. A Boehringer Mannheim Random Prime DNA Labeling kit (Indianapolis, Ind.) was used to generate [P^32]-radiolabeled probes. A full-length double-stranded HBV genome was used as a template for all radiolabeled probes. Viral DNA sequence was confirmed by PCR amplification and sequencing of the polymerase catalytic region.
# (§5) Baculoviruses were amplified by infecting suspension cultures of Sf21 cells in log phase at a multiplicity of infection (moi) of 0.5 pfu/cell. […] Virions were concentrated from infected Sf21 medium by centrifugation at 80,000×g and purified through a 20-60% w/v sucrose gradient. Purified virus was titrated in quadruplicate in Sf21 cells by end-point dilution. An aliquot of each high titer stock was used for DNA extraction. The polymerase gene was amplified and sequenced to confirm the presence of the site-directed mutagenesis.
# (§6) HepG2 cells were seeded at approximately 20-40% confluency and then were grown for 16-24 hours before infection. On the day of infection, triplicate plates of cells were trypsinized, and viable cell number was determined with a hemocytometer using Trypan blue exclusion. Average cell counts were calculated and used to determine the volume of high-titer viral stock necessary to infect cells at the indicated moi. HepG2 cells were washed one time with serum-free MEM to remove traces of serum. […]
# [2] = system: HBV mutant L180M double (rt L180M, M204V); test: Antiviral testing in HepG2 cells transduced with recombinant HBV/baculovirus, L180M double mutant; format: cell-based, hepatitis B virus; conditions: area under dose-response curve, value relative to WT = 1.0
# Description: as §1, §2, §3, §4, §5, §6
# [3] = system: HBV mutant L180M quad (rt L180M, T184G, S202I, M204V); test: Antiviral testing in HepG2 cells transduced with recombinant HBV/baculovirus, L180M quad mutant; format: cell-based, hepatitis B virus; conditions: area under dose-response curve, value relative to WT = 1.0
# Description: as §1, §2, §3, §4, §5, §6
# [4] = system: HBV mutant V173L triple (rt V173L, L180M, M204V); test: Antiviral testing in HepG2 cells transduced with recombinant HBV/baculovirus, V173L triple mutant; format: cell-based, hepatitis B virus; conditions: area under dose-response curve, value relative to WT = 1.0
# Description: as §1, §2, §3, §4, §5, §6
# HBV = conditions: 30 mg daily dose, over 12 weeks, phase II studies; cited from earlier work
Compound,AUC [1],AUC [2],AUC [3],AUC [4],mean decrease in viremia (HBV)
"CC(C)(C)C(=O)OCOP(=O)(COCCn1cnc2c(N)ncnc21)OCOC(=O)C(C)(C)C [ADV, adefovir dipivoxil]",1.0,1.7,1.3,0.4,4 log10
"Nc1ccn([C@@H]2CS[C@H](CO)O2)c(=O)n1 [LMV, (−)-β-2′-deoxy-3′-thiacytidine]",1.0,363.1,603.4,625.3,–
"C=C1[C@H](CO)[C@@H](O)C[C@@H]1n1cnc2c(=O)[nH]c(N)nc21 [ETV, entecavir]",1.0,215.9,242.7,47.5,–
"CC(C)OC(=O)OCOP(=O)(CO[C@H](C)Cn1cnc2c(N)ncnc21)OCOC(=O)OC(C)C [TFV, tenofovir disoproxil fumarate]",1.0,2.1,4.2,2.3,–
Cc1cn([C@@H]2C[C@@H](O)[C@H](CO)O2)c(=O)[nH]c1=O [L-dT],1.0,13.7,21.1,12.7,–
"Nc1nc(=O)n([C@@H]2CS[C@H](CO)O2)cc1F [FTC, (−)-β-L-2′-3′-dideoxy-5-fluoro-3′-thiacydidine]",1.0,761.4,464.4,1200.0,–
